According to the supplement of paper PMC5412046:
Where a name gives a salt, the structure may show the parent alone.

Assays:
[1] = tested on: SB.mhdgc-1; experiment: AC50 for growth inhibition (viability) (log10 M); higher = less potent; conditions: SB.mhdgc-1 (hereditary c.1380delA CDH1 gastric cancer)
Summary of the method: (§1)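 After 48 h with compound, plates received CellTiter-Glo for 30 min at room temperature and were read for luminescence on a ViewLux. The cells were patient-derived gastric cancer lines of hereditary or sporadic origin, plated at 500 cells in 5 μL medium per 1536 well and pinned with 23 nL compound in DMSO, at 11 threefold dilutions from a final 46 μM. For the log half-maximal activity concentration, DMSO-normalised viability was fitted with four parameters and only high-quality curve classes were kept.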

[2] = tested on: SB.msgc-1; experiment: as above; conditions: SB.msgc-1 (sporadic gastric cancer)
Summary of the method: as §1

Compound | AC50 for growth inhibition (log10 M) [1] | AC50 for growth inhibition (log10 M) [2]
N[C@@H](Cc1ccc(N(CCCl)CCCl)cc1)C(=O)O [Melphalan] | -6.08 | -5.83
CC12CC3CC(C)(C1)CC(N)(C3)C2 [Memantine hydrochloride] | -4.73 | -4.83
CCN(CC)CCNC(=O)c1ccc2nc(-c3ccccc3)c(-c3ccc(CN4CCC(n5c(=O)[nH]c6ccccc65)CC4)cc3)nc2c1 [Merck-22-6] | -5.63 | -4.88
CN(Cc1cnc2nc(N)nc(N)c2n1)c1ccc(C(=O)N[C@@H](CCC(=O)O)C(=O)O)cc1 [Methotrexate] | -6.68 | -7.48
CN(C)c1ccc2nc3ccc(N(C)C)cc3[s+]c2c1 [Methylene blue] | -5.83 | -5.33
CN(C)C1=CC=C(C=C1)C(C2=CC=C(C=C2)N(C)C)=C/3\C=C/C(/C=C3)=[N+](C)C [Methylrosaniline chloride] | -6.03 | -5.78
CO[C@@H]1[C@H](N(C)C(=O)c2ccccc2)C[C@H]2O[C@]1(C)n1c3ccccc3c3c4c(c5c6ccccc6n2c5c31)C(=O)NC4 [Midostaurin] | -5.63 | -5.38
CC#C[C@]1(O)CC[C@H]2[C@@H]/3CCC/4=C/C(=O)CCC4=C3[C@H](C[C@]12C)C5=CC=C(C=C5)N(C)C [Mifepristone] | -7.23 | -6.63
CNC(=O)c1nn(C)c2c1C(C)(C)Cc1cnc(Nc3ccc(N4CCN(C)CC4)cc3)nc1-2 [Milciclib] | -5.93 | -5.88
CN(C)c1ccc(O)c2c1C[C@H]1C[C@H]3[C@H](N(C)C)C(O)=C(C(N)=O)C(=O)[C@@]3(O)C(O)=C1C2=O [Minocycline] | -5.43 | -5.38
Clc1ccc(C(c2ccccc2Cl)C(Cl)Cl)cc1 (centres undefined) [Mitotane] | -4.88 | -4.73
O=C1c2c(O)ccc(O)c2C(=O)c2c(NCCNCCO)ccc(NCCNCCO)c21 [Mitoxantrone] | -7.13 | -5.88
C[C@@H]1C[C@H]2[C@@H]3CC\C4=C\C(=O)\C=C/[C@]4(C)[C@@]3(Cl)[C@@H](O)C[C@]2(C)[C@@]1(OC(=O)C5=CC=CO5)C(=O)CCl [Mometasone furoate] | -4.83 | -5.03
CCOC(=O)C/1=C(C)/NC(=S)NC1C2=CC=CC(=C2)O (centres undefined) [Monastrol] | -7.38 | -7.38
CC[C@@]1([C@@H]2O[C@@H]([C@H]3O[C@@](O)(CO)[C@H](C)C[C@@H]3C)C[C@@H]2C)CC[C@H]([C@]2(C)CC[C@]3(C[C@H](O)[C@@H](C)[C@@H]([C@@H](C)[C@@H](OC)[C@H](C)C(=O)[O-])O3)O2)O1 [Monensin sodium salt] | -6.99 | -6.94
CC1(C)CNc2cc(NC(=O)c3cccnc3NCc3ccncc3)ccc21 [Motesanib] | -7.23 | -5.98
FC(F)(F)c1ccc(/C=C/c2nc(COc3ccc(CCCCn4ccnn4)cc3)co2)cc1 [Mubritinib] | -6.78 | -7.83
COc1c(C)c2c(c(O)c1C/C=C(\C)CCC(=O)OCCN1CCOCC1)C(=O)OC2 [Mycophenolate mofetil] | -5.88 | -5.03
COc1c(C)c2c(c(O)c1C/C=C(\C)CCC(=O)O)C(=O)OC2 [Mycophenolic acid] | -5.48 | -5.93
COc1ccc(Nc2cc(-c3cnc(N)nc3)nc(N3CCOCC3)n2)cn1 [NIBR-17] | -6.48 | -5.18
Nc1nc(N)c(N=O)c(OCC2CCCCC2)n1 [NU-6027] | -5.33 | -4.73

Compound | AC50 for growth inhibition (log10 M) [1] | AC50 for growth inhibition (log10 M) [2]
N[S+](=O)([O-])c1ccc(Nc2nc(OCC3CCCCC3)c3[nH]cnc3n2)cc1 [NU-6102] | -4.68 | -4.83
O=C1\C=C(OC2=C(C=CC=C12)C3=CC=CC4=C3SC5=C4C=CC=C5)\N6CCOCC6 [NU-7441] | -4.68 | -4.78
CNCC(O)C(O)C(O)C(O)CO.O=C(O)c1ccc(-c2cc3cccnc3c(-c3ccc4nonc4c3)n2)cc1 [NVP-ABE171] | -4.58 | -4.63
COc1ccc(-c2ccc3ncc4c(c3c2)n(-c2ccc(N3CCNCC3)c(C(F)(F)F)c2)c(=O)n4C)cn1 [NVP-BGT226] | -6.58 | -5.58
Cc1ccc(C(=O)Nc2cccc(C(F)(F)F)c2)cc1Nc1nc(-c2cccnc2)nc2c1cnn2C [NVP-BHG712] | -4.83 | -4.78
Fc1cc(-c2cccc3ncc(-c4cnn(C5CCNCC5)c4)nc23)cc(F)c1CN1CCOCC1 [NVP-BSK805] | -5.03 | -4.68
CO[C@H]1CCC(O[C@H]2C[C@H]([C@]3(C)CC[C@]4(C[C@H](O)[C@@H](C)[C@@H]([C@@H](C)/C=C(\C)C(=O)[C@H](C)C[C@H](C)C(=O)[O][Na])O4)O3)O[C@]3(O[C@@H]([C@H]4O[C@@](O)(CO)[C@H](C)C[C@@H]4C)C[C@@H]3C)[C@@H]2C)O[C@@H]1C (some centres undefined) [Nanchangmycin] | -6.83 | -6.68
CN[S+](=O)([O-])CCc1ccc2[nH]cc(C3CCN(C)CC3)c2c1 [Naratriptan hydrochloride] | -7.08 | -6.83
CC1(C)CCC(=C(CN2CCN(CC2)C3=CC=C(C=C3)C(=O)N[S+]([O-])(=O)C4=CC(=C(N[C@H](CCN5CCOCC5)CSC6=CC=CC=C6)C=C4)[S+]([O-])(=O)C(F)(F)F)\C1)/C7=CC=C(Cl)C=C7 [Navitoclax] | -6.13 | -5.13
COc1ccc(CCC(=O)c2c(O)cc(O[C@@H]3O[C@H](CO)[C@@H](O)[C@H](O)[C@H]3O[C@@H]3O[C@@H](C)[C@H](O)[C@@H](O)[C@H]3O)cc2O)cc1O [Neohesperidin dihydrochalcone] | -5.28 | -5.18
NCC/1=C/NC(=S)N1[C@H]2CCC3=C(F)C=C(F)C=C3C2 [Nepicastat hydrochloride] | -4.98 | -5.03
O=C(Nc1ccc([N+](=O)[O-])cc1Cl)c1cc(Cl)ccc1O [Niclosamide] | -5.88 | -5.38
Cc1cn(-c2cc(NC(=O)c3ccc(C)c(Nc4nccc(-c5cccnc5)n4)c3)cc(C(F)(F)F)c2)cn1 [Nilotinib] | -5.18 | -4.83
CC(=O)Oc1ccccc1C(=O)Nc1ncc([N+](=O)[O-])s1 [Nitazoxanide] | -4.72 | -4.72
COc1ccc2c(c1OC)C(=O)O[C@H]2[C@H]1c2c(cc3c(c2OC)OCO3)CCN1C [Noscapine] | -6.78 | -6.63
COC1=CC=C(C(=C1)OC(C)C)C/2=N/[C@@H]([C@@H](N2C(=O)N3CCNC(=O)C3)C4=CC=C(Cl)C=C4)C5=CC=C(Cl)C=C5 [Nutlin-3] | -5.93 | -4.78
COc1cccc2cc(-c3nc(C4CCC(C(=O)O)CC4)n4ncnc(N)c34)[nH]c12 (centres undefined) [OSI-027] | -7.58 | -5.33
C#Cc1cccc(Nc2ncnc3cc(OCCOC)c(OCCO)cc23)c1 [OSI-420] | -6.23 | -6.03
COC1=CC(c2cc3ccccc3[nH]2)=N/C1=C/c1[nH]c(C)cc1C [Obatoclax] | -5.43 | -5.33
CCC(CCCC)COC(=O)C(\C#N)=C(\c1ccccc1)c2ccccc2 (centres undefined) [Octocrylene] | -4.88 | -4.88
CC(C)(F)C[C@H](N[C@@H](c1ccc(-c2ccc([S+](C)(=O)[O-])cc2)cc1)C(F)(F)F)C(=O)NC1(C#N)CC1 [Odanacatib] | -5.38 | -4.88
